Test system: Plasmopara viticola
Assay: activity against peronospora of grapevines caused by Plasmopara viticola (protective spray treatment of potted vines)
Type: in vivo, Plasmopara viticola on grapevines
Conditions: individual active compound, Abbot's formula, untreated control 92% infection
Procedure: The active compounds, separately or jointly, were prepared as a stock solution comprising 0.25% by weight of active compound in acetone or DMSO. 1% by weight of the emulsifier Uniperol® EL (wetting agent having emulsifying and dispersant action based on ethoxylated alkylphenols) was added to this solution, and the mixture was diluted with water to the desired concentration.
Use example—activity against peronospora of gravevines caused by Plasmopara viticola
Leaves of potted vines were sprayed to runoff point with an aqueous suspension having the concentration of active compound stated below. The next day, the undersides of the leaves were inoculated with an aqueous sproangal suspension of Plasmopara viticola. The grapevines were then initially placed in a water-vapor-saturated chamber at 24° C. for 48 hours and then in a greenhouse at 20-30° C. for 5 days. After this period of time, the plants were again placed in a humid chamber for 16 hours to promote sporangiophore eruption. The extent of the development of the disease on the undersides of the leaves was then determined visually.
The visually determined percentages of infected leaf areas were converted into efficacies in % of the untreated control:
The efficacy (E) is calculated as follows using Abbot's formula: E=(1−α/β)·100 • α corresponds to the fungicidal infection of the treated plants in % and • β corresponds to the fungicidal infection of the untreated (control) plants in %
An efficacy of 0 means that the infection level of the treated plants corresponds to that of the untreated control plants; an efficacy of 100 means that the treated plants were not infected.
The expected efficacies of mixtures of active compounds were determined using Colby's formula (Colby, S. R. “Calculating synergistic and antagonistic responses of herbicide combinations”, Weeds, 15, 20-22, 1967) and compared with the observed efficacies.
Colby's formula: E=x+y−x·y/100 • E expected efficacy, expressed in % of the untreated control, when using the mixture of the active compounds A and B at the concentrations a and b • x efficacy, expressed in % of the untreated control, when using the active compound A at the concentration a
y efficacy, expressed in % of the untreated control, when using the active compound B at the concentration b

Molecule | Efficacy in % of the untreated control (4 ppm in the spray liquor) | Efficacy in % of the untreated control (16 ppm in the spray liquor) | Efficacy in % of the untreated control (63 ppm in the spray liquor)
2,6-dinitro-4-octylphenyl crotonate und 2,4-dinitro-6-octylphenyl crotonate [II] | 2% | 2% | 2%
CC1CCN(c2c(-c3c(F)cc(F)cc3F)c(Cl)nc3ncnn23)CC1 [I, 5-chloro-7-(4-methylpiperidin-1-yl)-6-(2,4,6-trifluorophenyl)-[1,2,4]triazolo[1,5-a]pyrimidine] | – | 56% | –
